{"source": "patent US12012398B2", "about": "“Bicyclic compounds as androgen receptor modulators” (NIDO BIOSCIENCES, INC., priority 2021, dated 2024)", "data": [{"test_system": "LNCaP cells expressing ARR2PB-FireflyLuc and CMV-RenillaLuc", "experiment": "LNCaP ARR2PB-FireflyLuc reporter assay, antagonist mode", "assay_type": "cell-based", "details": "+0.5 nM DHT, 48 h at 37° C., read-out: LNCap Antagonist Archive: IC50", "method_in_brief": "(§1)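 LNCaP cells carrying ARR2PB-firefly and CMV-Renilla luciferase reporters were exposed to compound with 0.5 nM DHT for 48 h at 37° C. Remaining activity was scaled between 0.5 nM DHT alone (high) and 10 uM enzalutamide + 0.5 nM DHT (low). IC50 from non-linear regression, reported in bins A–D.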", "units": {"IC50": "nM"}, "values": [{"smiles": "CN(C(=O)c1cc2ccnc(Cl)c2n1C)C12CC(F)(C1)C2", "note": "[Example 128, 7-chloro-N-{3-fluorobicyclo[1.1.1]pentan-1-yl}-N,1-dimethylpyrrolo[2,3-c]pyridine-2-carboxamide]", "IC50": "100 to 1000"}]}, {"test_system": "LNCaP cells expressing ARR2PB-FireflyLuc and CMV-RenillaLuc", "experiment": "LNCaP ARR2PB-FireflyLuc reporter assay, antagonist mode", "assay_type": "cell-based", "details": "Homo sapiens, LNCaP, 48 h, +0.5 nM DHT, 48 h at 37° C., read-out: LNCap Antagonist Archive: IC50", "method_in_brief": "as §1", "units": {"IC50": "nM"}, "values": [{"smiles": "CN(C(=O)c1cc2cccc(Cl)c2[nH]1)C1CCOC(C)(C)C1", "note": "(centres unmarked) [Example 74, 7-chloro-N-(2,2-dimethyloxan-4-yl)-N-methyl-1H-indole-2-carboxamide]", "IC50": "1000 to 10000"}, {"smiles": "CC(C)N1CCC(N(C)C(=O)c2cc3cccc(Cl)c3[nH]2)CC1", "note": "[Example 45, 7-chloro-N-(1-isopropylpiperidin-4-yl)-N-methyl-1H-indole-2-carboxamide]", "IC50": "> 10000"}, {"smiles": "COCCN(C(=O)c1cc2cccc(Cl)c2[nH]1)C12CC(C1)C2", "note": "[Example 90, N-[bicyclo[1.1.1]pentan-1-yl]-7-chloro-N-(2-methoxyethyl)-1H-indole-2-carboxamide]", "IC50": "1000 to 10000"}, {"smiles": "Cn1c(C(=O)NC2CC3(CC3)C2)cc2ccnc(Cl)c21", "note": "[Example 149, 7-chloro-1-methyl-N-{spiro[2.3]hexan-5-yl}pyrrolo[2,3-c]pyridine-2-carboxamide]", "IC50": "1000 to 10000"}, {"smiles": "Cc1nc(-c2c(C(=O)N(Cc3ccco3)C(C)C)[nH]c3cc(F)ccc23)ccc1N", "note": "[Example 1, 3-(5-amino-6-methylpyridin-2-yl)-6-fluoro-N-(furan-2-ylmethyl)-N-isopropyl-1H-indole-2-carboxamide]", "IC50": "> 10000"}, {"smiles": "COCCN(C(=O)c1cc2ccc(F)cc2[nH]1)c1ccc(C#N)cn1", "note": "[Example 159]", "IC50": "1000 to 10000"}, {"smiles": "CN(C(=O)c1cc2ccc(F)cc2[nH]1)c1cccnc1", "note": "[Example 14, 6-fluoro-N-methyl-N-(pyridin-3-yl)-1H-indole-2-carboxamide]", "IC50": "> 10000"}, {"smiles": "O=C(NC12CC(C1)C2)c1cc2cccc(Cl)c2[nH]1", "note": "[Example 89, N-[bicyclo[1.1.1]pentan-1-yl]-7-chloro-1H-indole-2-carboxamide]", "IC50": "100 to 1000"}, {"smiles": "N#Cc1ccc(N(CC2CC2)C(=O)c2cc3cccc(Cl)c3[nH]2)cc1", "note": "[Example 56, 7-chloro-N-(4-cyanophenyl)-N-(cyclopropylmethyl)-1H-indole-2-carboxamide]", "IC50": "100 to 1000"}, {"smiles": "CC(C)N(Cc1cccnc1)C(=O)c1cc2ccc(F)cc2[nH]1", "note": "[Example 9, 6-fluoro-N-isopropyl-N-(pyridin-3-ylmethyl)-1H-indole-2-carboxamide]", "IC50": "1000 to 10000"}, {"smiles": "CN(C(=O)c1cc2cccc(Cl)c2[nH]1)c1ccc(C#N)cc1", "note": "[Example 33, 7-chloro-N-(4-cyanophenyl)-N-methyl-1H-indole-2-carboxamide]", "IC50": "1000 to 10000"}, {"smiles": "CN(C(=O)c1cc2ccnc(C#N)c2n1C)C12CC(F)(C1)C2", "note": "[Example 133, 7-cyano-N-{3-fluorobicyclo[1.1.1]pentan-1-yl}-N,1-dimethylpyrrolo[2,3-c]pyridine-2-carboxamide]", "IC50": "100 to 1000"}, {"smiles": "CN(C(=O)c1cc2ccnc(Cl)c2n1C)C12CC(F)(C1)C2", "note": "[Example 128, 7-chloro-N-{3-fluorobicyclo[1.1.1]pentan-1-yl}-N,1-dimethylpyrrolo[2,3-c]pyridine-2-carboxamide]", "IC50": "< 100"}, {"smiles": "COCCn1c(C(=O)NC23CC(F)(C2)C3)cc2ccnc(Cl)c21", "note": "[Example 139, 7-chloro-N-{3-fluorobicyclo[1.1.1]pentan-1-yl}-1-(2-methoxyethyl)pyrrolo[2,3-c]pyridine-2-carboxamide]", "IC50": "1000 to 10000"}, {"smiles": "CCn1c(C(=O)N(C)C23CC(F)(C2)C3)cc2ccnc(Cl)c21", "note": "[Example 153, 7-chloro-1-ethyl-N-(3-fluorobicyclo[1.1.1]pentan-1-yl)-N-methyl-1H-pyrrolo[2,3-c]pyridine-2-carboxamide]", "IC50": "< 100"}, {"smiles": "CC(C)N(Cc1cnco1)C(=O)c1cc2ccc(F)cc2[nH]1", "note": "[Example 6, 6-fluoro-N-isopropyl-N-(1,3-oxazol-5-ylmethyl)-1H-indole-2-carboxamide]", "IC50": "1000 to 10000"}, {"smiles": "Cn1c(C(=O)NC2CC3(CCC3)C2)cc2ccnc(Cl)c21", "note": "[Example 150, 7-chloro-1-methyl-N-{spiro[3.3]heptan-2-yl}pyrrolo[2,3-c]pyridine-2-carboxamide]", "IC50": "1000 to 10000"}, {"smiles": "O=C(c1cc2cccc(Cl)c2[nH]1)N(c1ccc(F)cc1)C1CCOC1", "note": "(centres unmarked) [Example 58, 7-chloro-N-(4-fluorophenyl)-N-(tetrahydrofuran-3-yl)-1H-indole-2-carboxamide]", "IC50": "100 to 1000"}, {"smiles": "CN(C(=O)c1cc2ccc(F)cc2[nH]1)C12CC(C1)C2", "note": "[Example 93, N-[bicyclo[1.1.1]pentan-1-yl]-6-fluoro-N-methyl-1H-indole-2-carboxamide]", "IC50": "100 to 1000"}, {"smiles": "NCCN(CC1CC1)C(=O)c1cc2cccc(Cl)c2[nH]1", "note": "[Example 47, N-(2-aminoethyl)-7-chloro-N-(cyclopropylmethyl)-1H-indole-2-carboxamide]", "IC50": "> 10000"}, {"smiles": "Cn1c(C(=O)NC23CC(F)(C2)C3)cc2ccnc(OC3CC3)c21", "note": "[Example 119, 7-cyclopropoxy-N-{3-fluorobicyclo[1.1.1]pentan-1-yl}-1-methylpyrrolo[2,3-c]pyridine-2-carboxamide]", "IC50": "> 10000"}, {"smiles": "O=C(NC12CC(F)(C1)C2)c1cc2ccnc(Cl)c2[nH]1", "note": "[Example 99, 7-chloro-N-[3-fluorobicyclo[1.1.1]pentan-1-yl]-1H-pyrrolo[2,3-c]pyridine-2-carboxamide]", "IC50": "1000 to 10000"}, {"smiles": "CN(C(=O)c1cc2cccc(Cl)c2[nH]1)C12CC(C#N)(C1)C2", "note": "[Example 86, 7-chloro-N-[3-cyanobicyclo[1.1.1]pentan-1-yl]-N-methyl-1H-indole-2-carboxamide]", "IC50": "1000 to 10000"}, {"smiles": "CN(CC1CC1)C(=O)c1cc2cccc(Cl)c2[nH]1", "note": "[Example 32, 7-chloro-N-(cyclopropylmethyl)-N-methyl-1H-indole-2-carboxamide]", "IC50": "1000 to 10000"}, {"smiles": "CN(C(=O)c1cc2ccnc(OC3CC3)c2[nH]1)C12CC(F)(C1)C2", "note": "[Example 126, 7-cyclopropoxy-N-{3-fluorobicyclo[1.1.1]pentan-1-yl}-N-methyl-1H-pyrrolo[2,3-c]pyridine-2-carboxamide]", "IC50": "> 10000"}, {"smiles": "CN(C(=O)c1cc2cccc(Cl)c2[nH]1)c1ccccc1", "note": "[Example 19, 7-chloro-N-methyl-N-phenyl-1H-indole-2-carboxamide]", "IC50": "100 to 1000"}, {"smiles": "CN(C(=O)c1cc2cccc(C(F)(F)F)c2[nH]1)c1ccccn1", "note": "[Example 26, N-methyl-N-(pyridin-2-yl)-7-(trifluoromethyl)-1H-indole-2-carboxamide]", "IC50": "100 to 1000"}, {"smiles": "Cn1c(C(=O)NC23CC(F)(C2)C3)cc2ccnc(C(F)(F)F)c21", "note": "[Example 154, N-(3-fluorobicyclo[1.1.1]pentan-1-yl)-1-methyl-7-(trifluoromethyl)-1H-pyrrolo[2,3-c]pyridine-2-carboxamide]", "IC50": "1000 to 10000"}, {"smiles": "Cc1ncoc1CN(C)C(=O)c1cc2cccc(Cl)c2[nH]1", "note": "[Example 97, 7-chloro-N-methyl-N-[(4-methyl-1,3-oxazol-5-yl)methyl]-1H-indole-2-carboxamide]", "IC50": "> 10000"}, {"smiles": "COCCN(C(=O)c1cc2ccc(F)cc2[nH]1)c1ccn(C)n1", "note": "[Example 57, 6-fluoro-N-(2-methoxyethyl)-N-(1-methyl-1H-pyrazol-3-yl)-1H-indole-2-carboxamide]", "IC50": "> 10000"}, {"smiles": "Cn1ccc(-c2c(C(=O)NC34CC(C3)C4)[nH]c3c(Cl)cccc23)n1", "note": "[Example 107, N-[bicyclo[1.1.1]pentan-1-yl]-7-chloro-3-(1-methylpyrazol-3-yl)-1H-indole-2-carboxamide]", "IC50": "> 10000"}, {"smiles": "CN(C(=O)c1cc2cccc(C(F)(F)F)c2o1)c1ccc(F)cc1", "note": "[Example 36, N-(4-fluorophenyl)-N-methyl-7-(trifluoromethyl)benzofuran-2-carboxamide]", "IC50": "1000 to 10000"}, {"smiles": "Cn1c(C(=O)NC23CC(F)(C2)C3)cc2ccnc(C#N)c21", "note": "[Example 131, 7-cyano-N-{3-fluorobicyclo[1.1.1]pentan-1-yl}-1-methylpyrrolo[2,3-c]pyridine-2-carboxamide]", "IC50": "100 to 1000"}, {"smiles": "COCCN(C(=O)c1cc2cccc(Cl)c2[nH]1)c1ccc(C#N)cc1C", "note": "[Example 77, 7-chloro-N-(4-cyano-2-methylphenyl)-N-(2-methoxyethyl)-1H-indole-2-carboxamide]", "IC50": "> 10000"}, {"smiles": "Cn1c(C(=O)NC23CC(C)(C2)C3)cc2ccnc(Cl)c21", "note": "[Example 142, 7-chloro-1-methyl-N-{3-methylbicyclo[1.1.1]pentan-1-yl}pyrrolo[2,3-c]pyridine-2-carboxamide]", "IC50": "1000 to 10000"}, {"smiles": "Cn1c(C(=O)NC23CC(C2)C3)cc2ccncc21", "note": "[Example 156, N-(bicyclo[1.1.1]pentan-1-yl)-1-methyl-1H-pyrrolo[2,3-c]pyridine-2-carboxamide]", "IC50": "100 to 1000"}, {"smiles": "Cn1c(C(=O)NC23CC(F)(C2)C3)cc2ccnc(Cl)c21", "note": "[Example 110, 7-chloro-N-[3-fluorobicyclo[1.1.1]pentan-1-yl]-1-methylpyrrolo[2,3-c]pyridine-2-carboxamide]", "IC50": "100 to 1000"}, {"smiles": "CN(C)c1nccc2cc(C(=O)NC34CC(F)(C3)C4)n(C)c12", "note": "[Example 125, 7-(dimethylamino)-N-{3-fluorobicyclo[1.1.1]pentan-1-yl}-1-methylpyrrolo[2,3-c]pyridine-2-carboxamide]", "IC50": "1000 to 10000"}, {"smiles": "CCN(C(=O)c1cc2ccnc(Cl)c2[nH]1)C12CC(F)(C1)C2", "note": "[Example 117, 7-chloro-N-ethyl-N-{3-fluorobicyclo[1.1.1]pentan-1-yl}-1H-pyrrolo[2,3-c]pyridine-2-carboxamide]", "IC50": "100 to 1000"}, {"smiles": "CN(C(=O)c1cc2ccc(F)cc2o1)c1ccccn1", "note": "[Example 38, 6-fluoro-N-methyl-N-(pyridin-2-yl)-1-benzofuran-2-carboxamide]", "IC50": "> 10000"}, {"smiles": "O=C(NC1CC(F)(F)C1)c1cc2ccnc(Cl)c2[nH]1", "note": "[Example 100, 7-chloro-N-(3,3-difluorocyclobutyl)-1H-pyrrolo[2,3-c]pyridine-2-carboxamide]", "IC50": "100 to 1000"}, {"smiles": "O=C(NC12CC(O)(C1)C2)c1cc2ccnc(Cl)c2[nH]1", "note": "[Example 116, 7-chloro-N-{3-hydroxybicyclo[1.1.1]pentan-1-yl}-1H-pyrrolo[2,3-c]pyridine-2-carboxamide]", "IC50": "> 10000"}, {"smiles": "CN(C(=O)c1cc2ccc(F)cc2[nH]1)c1ccccn1", "note": "[Example 13, 6-fluoro-N-methyl-N-(pyridin-2-yl)-1H-indole-2-carboxamide]", "IC50": "1000 to 10000"}]}]}
